From patent publication US20250213532A1, “5-METHOXY-N,N-[…][…] THE TREATMENT OF BIPOLAR DISORDER” (GH RESEARCH IRELAND LIMITED, priority 2022, published 2025)

Assay: Pharmacokinetics after single inhaled dose (LC-MS/MS)
Type: in vivo, human
Procedure: Blood samples were obtained at 1; 2; 4; 7; 10; 15; 20; 30; 45 min and 1; 1.5; 2; 3; 4 hours after administration.
PK parameters were generated by algebraic analysis of the concentration versus time plots for each individual. The analysis was carried out using the software Phoenix WinNonlin 6.3.

CN(C)CCc1c[nH]c2ccc(O)cc12 [bufotenine]
Samples with bufotenine concentration above LLOQ (after inhaled 5-MeO-DMT, LLOQ 25 pg/ml): Only in few samples | Bufotenine blood concentrations under uptitration scheme vs single dose (subjects receiving an uptitration scheme included): Substantially similar observations
